Reference: patent publication US10221173B2, “Chemical compounds” (AstraZeneca AB, priority 2017, dated 2019)
In brackets after ≈: the same amount, converted by molar mass.

Key:
[1] = molecular target: ER (Homo sapiens (Human), UniProt P03372); conditions: 500 mg monthly dose; cited from earlier work
[2] = molecular target: recombinant human Estrogen Receptor alpha ligand binding domain (ER alpha-LBD (GST)) (Homo sapiens (Human), UniProt P03372); assay: ERα binding assay (LanthaScreen TR-FRET competition)
[3] = molecular target: T1, Estrogen Receptor (ERα) in MCF-7 cells (Homo sapiens (Human), UniProt P03372); assay: MCF-7 ER down-regulation assay (immuno-fluorescence); format: cell-based
[4] = molecular target: hERG potassium channel (Homo sapiens (Human), UniProt Q12809)
Experimental: The assay was conducted as follows with all reagents used at room temperature unless otherwise stated.
All compounds were acoustically dispensed in quadruplicate using a Labcyte Echo.
Calculation of results is performed using APC package within Genedata. For the routine normalization of well data with Neutral and Inhibitor control well groups as reference, GeneData Assay Analyzer uses the following equation to normalize the signal values to the desired signal range:
[formula] x is the measured raw signal value of a well is the median of the measured signal values for the Central Reference (Neutral) wells on a plate is the median of the measured signal values for the Scale Reference (Inhibitor) wells on a plate CR is the desired median normalized value for the Central Reference (Neutral) SR is the desired median normalized value for the Scale Reference (Inhibitor)

[5] = molecular target: T1, Estrogen Receptor (ERα) in MCF-7 cells; assay: Western blotting assay, ER down-regulation in MCF-7; format: cell-based; conditions: MCF-7, 100 nM compound, 48 h, vs 100 nM fulvestrant
[6] = Log D (shake flask, 1-octanol/aqueous buffer); format: physicochemical; conditions: 1-octanol/aqueous buffer, pH 7.4, pH 7.4
[7] = Thermodynamic solubility (shake-flask); format: physicochemical; conditions: aqueous phosphate buffer, 25 °C, pH 7.4, aqueous buffer, thermodynamic from solid, phosphate buffer pH 7.4, 24 hours
Experimental: The thermodynamic solubility of a research compound is measured under standard conditions. It is a shake-flask approach that uses 10 mM DMSO solutions which are supplied from the Compound Managements liquid store and is a high throughput method. The dried compounds are equilibrated in an aqueous phosphate buffer (pH 7.4) for 24 hours at 25° C., the portion with the dissolved compound is then separated from the remains. The solutions are analyzed and quantified using UPLC/MS/MS, QC-samples are incorporated in each assay-run to ensure the quality of the assay.

[8] = Human plasma protein binding (equilibrium dialysis); format: in vitro ADME
[9] = molecular target: estrogen receptor (ERα) in CAMA-1 cells (Homo sapiens (Human), UniProt P03372); assay: Western blotting assay, ER down-regulation in CAMA-1; format: cell-based; conditions: CAMA-1, 100 nM compound, 48 h, vs 100 nM fulvestrant
Sequence of estrogen receptor (ERα) in CAMA-1 cells (P03372 whole entry): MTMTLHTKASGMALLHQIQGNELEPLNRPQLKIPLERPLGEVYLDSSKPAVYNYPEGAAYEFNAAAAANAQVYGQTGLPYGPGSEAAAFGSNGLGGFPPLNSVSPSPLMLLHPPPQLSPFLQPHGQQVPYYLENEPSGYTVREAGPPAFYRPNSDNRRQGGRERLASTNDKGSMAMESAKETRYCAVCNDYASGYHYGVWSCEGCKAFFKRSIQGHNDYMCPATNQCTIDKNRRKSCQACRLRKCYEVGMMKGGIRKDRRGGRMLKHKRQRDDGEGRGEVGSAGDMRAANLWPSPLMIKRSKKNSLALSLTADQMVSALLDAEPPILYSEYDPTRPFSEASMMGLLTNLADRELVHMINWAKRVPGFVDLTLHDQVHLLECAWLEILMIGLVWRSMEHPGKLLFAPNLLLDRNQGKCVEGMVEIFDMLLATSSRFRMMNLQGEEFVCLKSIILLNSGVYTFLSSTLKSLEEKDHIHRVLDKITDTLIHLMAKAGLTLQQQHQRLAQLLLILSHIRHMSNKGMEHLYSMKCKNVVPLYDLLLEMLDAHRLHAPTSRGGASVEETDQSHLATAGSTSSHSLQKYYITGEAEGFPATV

T1 sequence (P03372 whole entry): as above
Sequence of ER (P03372 whole entry, the tested form may be a part): as the sequence (P03372 whole entry) above
Sequence of recombinant human Estrogen Receptor alpha ligand binding domain (ER alpha-LBD (GST)) (P03372 307-554): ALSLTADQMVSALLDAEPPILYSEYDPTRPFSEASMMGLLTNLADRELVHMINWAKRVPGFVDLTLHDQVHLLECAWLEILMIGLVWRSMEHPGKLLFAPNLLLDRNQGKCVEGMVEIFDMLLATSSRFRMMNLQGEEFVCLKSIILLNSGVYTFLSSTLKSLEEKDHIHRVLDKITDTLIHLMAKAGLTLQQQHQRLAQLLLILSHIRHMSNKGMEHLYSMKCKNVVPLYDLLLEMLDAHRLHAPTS
Sequence of hERG potassium channel (Q12809 whole entry): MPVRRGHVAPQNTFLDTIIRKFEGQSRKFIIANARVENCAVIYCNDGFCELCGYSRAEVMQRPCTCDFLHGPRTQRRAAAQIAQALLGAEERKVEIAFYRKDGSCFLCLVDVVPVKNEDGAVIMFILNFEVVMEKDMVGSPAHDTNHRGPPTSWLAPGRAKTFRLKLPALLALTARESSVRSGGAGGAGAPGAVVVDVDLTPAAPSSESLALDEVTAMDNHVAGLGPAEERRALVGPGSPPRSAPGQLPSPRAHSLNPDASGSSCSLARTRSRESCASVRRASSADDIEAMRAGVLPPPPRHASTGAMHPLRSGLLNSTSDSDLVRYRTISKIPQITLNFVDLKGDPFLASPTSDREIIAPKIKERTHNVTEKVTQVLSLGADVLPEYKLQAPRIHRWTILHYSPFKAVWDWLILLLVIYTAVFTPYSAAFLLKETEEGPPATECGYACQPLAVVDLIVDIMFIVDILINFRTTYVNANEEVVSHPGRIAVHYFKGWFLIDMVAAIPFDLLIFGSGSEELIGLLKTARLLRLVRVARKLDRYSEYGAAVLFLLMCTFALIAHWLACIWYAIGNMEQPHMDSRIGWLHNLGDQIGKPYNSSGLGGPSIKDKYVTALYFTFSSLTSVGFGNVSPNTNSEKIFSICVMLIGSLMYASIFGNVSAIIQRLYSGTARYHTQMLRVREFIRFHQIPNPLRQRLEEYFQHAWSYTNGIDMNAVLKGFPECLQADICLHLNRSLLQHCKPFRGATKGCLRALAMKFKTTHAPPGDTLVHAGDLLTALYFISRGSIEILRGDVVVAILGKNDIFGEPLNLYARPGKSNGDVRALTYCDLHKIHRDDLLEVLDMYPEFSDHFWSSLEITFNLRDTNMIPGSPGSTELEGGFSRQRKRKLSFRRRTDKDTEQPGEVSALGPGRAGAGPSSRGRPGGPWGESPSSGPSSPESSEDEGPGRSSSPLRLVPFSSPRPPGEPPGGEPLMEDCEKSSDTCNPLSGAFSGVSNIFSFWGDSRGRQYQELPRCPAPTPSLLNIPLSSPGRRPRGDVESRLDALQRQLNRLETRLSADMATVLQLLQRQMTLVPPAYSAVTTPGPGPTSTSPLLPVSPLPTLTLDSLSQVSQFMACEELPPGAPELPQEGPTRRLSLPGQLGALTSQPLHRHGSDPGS

Compound	turnover of the receptor in patient samples [1]	IC50 [2]	IC50 [3]	IC50 [4]	MCF7 Western % ER deg vs Fv [5]	logD [6]	solubility at 24 h [7]	Human plasma protein binding (% free) [8]	CAMA1 Western % ER deg vs Fv [9]
C[C@]12CC[C@@H]3c4ccc(O)cc4C[C@@H](CCCCCCCCC[S+]([O-])CCCC(F)(F)C(F)(F)F)[C@H]3[C@@H]1CC[C@@H]2O (stereo partly drawn) [Fulvestrant]	less than 50%								
C[C@@H]1Cc2c([nH]c3cccc(F)c23)[C@@H](c2c(F)ccc(OCCNCCCF)c2F)N1CC(F)(F)CO [Example 62, 3-((1R,3R)-1-(2,6-difluoro-3-(2-((3-fluoropropyl)amino)ethoxy)phenyl)-5-fluoro-3-methyl-1,3,4,9-tetrahydro-2H-pyrido[3,4-b]indol-2-yl)-2,2-difluoropropan-1-ol]		0.71 nM	0.076 nM	5000 nM	95%	3.3	302 µM (≈ 160 µg/mL)	1.2 % free	96%
